In ChEMBL document CHEMBL3244015, “Synthesis and biological evaluation of a tetrahydroisoquinoline derivative possessing selective beta2-adrenergic agonist activity” (J Med Chem, 1977) one finds ED50 and Activity data, which are given here for two molecules.

The source made the active and inactive calls. No cut-off for these calls is given here.

Test [1] addresses Beta-2 adrenergic receptor (Cavia porcellus) (UniProt Q8K4Z4). The test is described as follows: Agonist activity at beta-2 adrenergic receptor in isolated guinea pig trachea assessed as induction of relaxation of tracheal muscle.
Test [2] addresses Beta-1 adrenergic receptor (Cavia porcellus) (UniProt B0FL73). As to the kind of experiment: Agonist activity at beta-1 adrenergic receptor in isolated guinea pig atrial preparation assessed as induction of chronotrophic response at 10^-9 to 10^-3 M. The note with it: Cardiac atrium.
Test [3] has as its target Beta-2 adrenergic receptor (Cavia porcellus) (UniProt Q8K4Z4). As to the kind of experiment: Agonist activity at beta-2 adrenergic receptor in isolated guinea pig trachea assessed as induction of relaxation of tracheal muscle at 10^-9 to 10^-3 M.

Beta-1 adrenergic receptor (Cavia porcellus), sequence (B0FL73 1-467): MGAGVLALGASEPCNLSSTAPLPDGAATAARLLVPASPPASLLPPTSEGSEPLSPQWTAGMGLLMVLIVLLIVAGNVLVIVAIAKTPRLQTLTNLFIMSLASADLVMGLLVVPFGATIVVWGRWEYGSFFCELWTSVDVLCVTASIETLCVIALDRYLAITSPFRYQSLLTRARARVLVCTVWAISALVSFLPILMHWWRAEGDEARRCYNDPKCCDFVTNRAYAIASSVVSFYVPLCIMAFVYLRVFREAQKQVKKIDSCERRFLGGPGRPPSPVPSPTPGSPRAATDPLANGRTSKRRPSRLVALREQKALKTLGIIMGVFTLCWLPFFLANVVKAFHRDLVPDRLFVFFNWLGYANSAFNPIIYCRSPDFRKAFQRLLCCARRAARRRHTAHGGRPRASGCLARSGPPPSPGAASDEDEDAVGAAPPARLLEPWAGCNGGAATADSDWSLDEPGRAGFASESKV
Beta-2 adrenergic receptor (Cavia porcellus), sequence (Q8K4Z4 whole entry, looked up): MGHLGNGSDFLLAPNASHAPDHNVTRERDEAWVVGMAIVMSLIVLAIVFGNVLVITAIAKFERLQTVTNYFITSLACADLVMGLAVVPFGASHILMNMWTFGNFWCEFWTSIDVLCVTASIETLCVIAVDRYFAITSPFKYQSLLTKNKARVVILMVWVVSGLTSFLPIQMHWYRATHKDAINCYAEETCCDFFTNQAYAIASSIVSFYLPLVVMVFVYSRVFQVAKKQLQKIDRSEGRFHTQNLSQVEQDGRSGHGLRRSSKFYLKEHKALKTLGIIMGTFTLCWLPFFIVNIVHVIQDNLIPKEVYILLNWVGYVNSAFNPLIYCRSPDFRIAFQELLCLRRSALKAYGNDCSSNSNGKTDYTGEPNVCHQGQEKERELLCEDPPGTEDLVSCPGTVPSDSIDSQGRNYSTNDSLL

Turning to `COc1cc(CC2CNCc3cc(O)c(O)cc32)cc(OC)c1OC` (centres undefined), the ED50 in test [1] is 1 ×10⁻⁵ M. For the same molecule, in test [2], the outcome was inactive.

On to `COc1cc(CC(CN)c2ccc(O)c(O)c2)cc(OC)c1OC` (centres undefined), for which the outcome in test [3] and in test [2] was Active.
